The values below come from patent publication US20240285727A1, “NOVEL THERAPEUTIC PEPTIDES FOR NEURODEGENERATION” (UNIVERSITY OF SOUTHERN CALIFORNIA, priority 2021, published 2024).

This experiment relates to SHSY5Y. The experiment can be described thus: Analogue screening assay, measured by MTT. The format is cell-based. The conditions noted are these: as a percentage compared to SHMOOSE (SHMOOSE activity as 100%). From the text: FIG. 10 depicts an analogue screening assay, measured by MTT. Top: each bar represents a fragment (25-amino acid in length) of SHMOOSE. Bottom: each bar represents a phosphomimetic fragment (25-amino acid in length) of SHMOOSE. Cell model is SHSY5Y. The Inventors made 103 analogues/derivatives (see Table 1).
The Inventors made 103 analogues (Table 1). Referring to FIG. 10, in the top figure, each bar represents a 25-amino acid fragment of the SHMOOSE peptide. […] The sequence length of the analogue is 14 amino acids and 3 different analysis windows of the analogue, each having 11 amino acids, were characterized. […]
With “1 (MPPCLTTWLSQLLKDNSYPLVLGPK) [compound 1]”, the “% Efficacy” value was 62.23%.
For the substance “2 (PPCLTTWLSQLLKDNSYPLVLGPKN) [compound 2]”, the “% Efficacy” value is given as 37.99%.
For “3 (PCLTTWLSQLLKDNSYPLVLGPKNF) [compound 3]” the value was 115.35%; for “4 (CLTTWLSQLLKDNSYPLVLGPKNFG) [compound 4]”, 12.47%.
For the substance “5 (LTTWLSQLLKDNSYPLVLGPKNFGA) [compound 5]”, the “% Efficacy” value is listed as −13.61%.
Take “6 (TTWLSQLLKDNSYPLVLGPKNFGAT) [compound 6]”: the “% Efficacy” value is on record as −42.74%.
As to “7 (TWLSQLLKDNSYPLVLGPKNFGATP) [compound 7]”, the “% Efficacy” value was −113.24%.
For “8 (WLSQLLKDNSYPLVLGPKNFGATPN) [compound 8]” the value was −3.65%.
Under “9 (LSQLLKDNSYPLVLGPKNFGATPNK) [compound 9]” stands −82.17%; under “10 (SQLLKDNSYPLVLGPKNFGATPNKS) [compound 10]”, −107.19%; under “11 (QLLKDNSYPLVLGPKNFGATPNKSN) [compound 11]”, −85.19%.
For “12 (LLKDNSYPLVLGPKNFGATPNKSNN) [compound 12]” the value was −97.85%; for “13 (LKDNSYPLVLGPKNFGATPNKSNNH) [compound 13]”, −58.60%.
For the substance “14 (KDNSYPLVLGPKNFGATPNKSNNHA) [compound 14]”, the “% Efficacy” value is reported as −147.96%.
Regarding “15 (DNSYPLVLGPKNFGATPNKSNNHAH) [compound 15]”, the “% Efficacy” value is reported as 51.51%.
On to “16 (NSYPLVLGPKNFGATPNKSNNHAHY) [compound 16]”, for which the “% Efficacy” value is −79.03%.
As for “17 (SYPLVLGPKNFGATPNKSNNHAHYY) [compound 17]”, the “% Efficacy” value is given as −195.89%.
Under “18 (YPLVLGPKNFGATPNKSNNHAHYYN) [compound 18]” stands −133.09%; under “19 (PLVLGPKNFGATPNKSNNHAHYYNH) [compound 19]”, −191.36%; under “20 (LVLGPKNFGATPNKSNNHAHYYNHP) [compound 20]”, −248.54%.
For “21 (VLGPKNFGATPNKSNNHAHYYNHPN) [compound 21]” the value was −50.24%.
For “22 (LGPKNFGATPNKSNNHAHYYNHPNP) [compound 22]” the value was −140.81%; for “23 (GPKNFGATPNKSNNHAHYYNHPNPD) [compound 23]”, −210.91%.
On to “24 (PKNFGATPNKSNNHAHYYNHPNPDF) [compound 24]”, for which the “% Efficacy” value is −185.28%.
Under “25 (KNFGATPNKSNNHAHYYNHPNPDFP) [compound 25]” stands −8.52%; under “26 (NFGATPNKSNNHAHYYNHPNPDFPN) [compound 26]”, −232.44%.
Under “27 (FGATPNKSNNHAHYYNHPNPDFPNS) [compound 27]” stands −226.16%.
Turning to “28 (GATPNKSNNHAHYYNHPNPDFPNSP) [compound 28]”, the “% Efficacy” value is reported as −229.42%.
In the case of “29 (ATPNKSNNHAHYYNHPNPDFPNSPH) [compound 29]”, the “% Efficacy” value is listed as −262.37%.
Under “30 (TPNKSNNHAHYYNHPNPDFPNSPHP) [compound 30]” stands −367.82%.
For “31 (PNKSNNHAHYYNHPNPDFPNSPHPY) [compound 31]” the value was −477.36%; for “32 (NKSNNHAHYYNHPNPDFPNSPHPYH) [compound 32]”, −145.56%.
For “33 (KSNNHAHYYNHPNPDFPNSPHPYHP) [compound 33]” the value was −119.66%; for “34 (SNNHAHYYNHPNPDFPNSPHPYHPR) [compound 34]”, −195.91%; for “35 (GPKNFGATPNKSNNHAHYYNHPNPN) [compound 35]”, 8.68%.
With “36 (PKNFGATPNKSNNHAHYYNHPNPNF) [compound 36]”, the “% Efficacy” value is on record as −120.40%.
For “37 (KNFGATPNKSNNHAHYYNHPNPNFP) [compound 37]” the value was −227.50%; for “38 (NFGATPNKSNNHAHYYNHPNPNFPN) [compound 38]”, −196.67%; for “40 (GATPNKSNNHAHYYNHPNPNFPNSP) [compound 40]”, −302.11%.
In the case of “41 (ATPNKSNNHAHYYNHPNPNFPNSPH) [compound 41]”, the “% Efficacy” value is given as −188.45%.
In the case of “42 (TPNKSNNHAHYYNHPNPNFPNSPHP) [compound 42]”, the “% Efficacy” value is −392.68%.
For “45 (KSNNHAHYYNHPNPNFPNSPHPYHP) [compound 45]” the value was −292.14%.
For the substance “46 (SNNHAHYYNHPNPNFPNSPHPYHPR) [compound 46]”, the “% Efficacy” value is −59.27%.
With “47 (MPPCLDDWLDQLLKDNDDPLVLGPK) [compound 47]”, the “% Efficacy” value is −150.17%.
As for “48 (PPCLDDWLDQLLKDNDDPLVLGPKN) [compound 48]”, the “% Efficacy” value is −159.22%.
For “49 (PCLDDWLDQLLKDNDDPLVLGPKNF) [compound 49]”, the “% Efficacy” value was −168.90%.
As to “50 (CLDDWLDQLLKDNDDPLVLGPKNFG) [compound 50]”, the “% Efficacy” value is recorded as −340.42%.
Regarding “51 (LDDWLDQLLKDNDDPLVLGPKNFGA) [compound 51]”, the “% Efficacy” value was −132.69%.
Under “52 (DDWLDQLLKDNDDPLVLGPKNFGAD) [compound 52]” stands −38.98%; under “53 (DWLDQLLKDNDDPLVLGPKNFGADP) [compound 53]”, −76.54%; under “54 (WLDQLLKDNDDPLVLGPKNFGADPN) [compound 54]”, −45.99%.
Under “55 (LDQLLKDNDDPLVLGPKNFGADPNK) [compound 55]” stands −38.64%; under “56 (DQLLKDNDDPLVLGPKNFGADPNKD) [compound 56]”, −93.30%; under “57 (QLLKDNDDPLVLGPKNFGADPNKDN) [compound 57]”, −1.36%.
In the case of “58 (LLKDNDDPLVLGPKNFGADPNKDNN) [compound 58]”, the “% Efficacy” value is listed as −58.59%.
Regarding “60 (KDNDDPLVLGPKNFGADPNKDNNHA) [compound 60]”, the “% Efficacy” value is on record as −146.91%.
On to “62 (NDDPLVLGPKNFGADPNKDNNHAHD) [compound 62]”, for which the “% Efficacy” value is listed as −250.35%.
Under “63 (DDPLVLGPKNFGADPNKDNNHAHDD) [compound 63]” stands −216.49%.
Under “64 (DPLVLGPKNFGADPNKDNNHAHDDN) [compound 64]” stands −254.41%; under “65 (PLVLGPKNFGADPNKDNNHAHDDNH) [compound 65]”, −163.31%; under “66 (LVLGPKNFGADPNKDNNHAHDDNHP) [compound 66]”, −157.61%.
With “67 (VLGPKNFGADPNKDNNHAHDDNHPN) [compound 67]”, the “% Efficacy” value was −231.08%.
For “68 (LGPKNFGADPNKDNNHAHDDNHPNP) [compound 68]” the value was −144.36%; for “69 (GPKNFGADPNKDNNHAHDDNHPNPD) [compound 69]”, −184.35%; for “70 (PKNFGADPNKDNNHAHDDNHPNPDF) [compound 70]”, −157.35%.
For “71 (KNFGADPNKDNNHAHDDNHPNPDFP) [compound 71]” the value was −113.32%.
